Experimental data as given in US9145424B2, “Treatment of amyotrophic lateral sclerosis” (Northwestern University, priority 2008, dated 2015).
Where two headings read alike, the source gives them in different places. Blank lines part the entries; values can stand above or below the molecule they belong to.

How the values were obtained:
[1] = format: in vitro ADME; conditions: male, Sprague Dawley, rat, pH 7.4
[2] = test system: PC12 cells that express mutant G93A SOD1; assay: Mutant SOD1-induced cytotoxicity protection assay; conditions: for EC50: Rattus norvegicus, PC-12, read-out: Best EC50, PC12 G93A SOD1 cells, MG132, calcein-AM viability
Protocol: This idea was tested by examining the sensitivity of PC12 cells to SOD1 aggregates in the presence and absence of proteasome inhibitor MG132. PC12 cells expressing no SOD1, wild type SOD1, G85R SOD1 or G93A SOD1 were grown with or without MG132 (FIG. 1).
PC12 cells expressing G93A SOD1 were treated with 100 nM MG132 with or without co-treatment with geldanamycin or radicicol.

[3] = test system: proteasome activity (Ubi-YFP degradation); assay: Proteasome activity assay (Ubi-YFP in HeLa cells); format: cell-based; conditions: 25 μM compound, 1 μM MG132
Protocol: FIG. 7. Arylsulfanyl pyrazolones prevent MG132-induced accumulation of Ubi-YFP. HeLa cells were co-transfected with Ubi-YFP and CMV-CFP plasmids, treated with 1 μM MG132 and 25 μM arylsulfanyl pyrazolones and Ubi-YFP fluorescence intensity normalized to CFP.
Since the CMB-003299 cytotoxicity of SOD1 protein aggregates may involve inhibition of proteasome activity, compounds that stimulate proteasome activity could reverse or prevent mutant SOD1-induced cytotoxicity. Thus, active compounds were tested for the ability to stimulate proteasome activity using a cell line expressing ubiquitin-conjugated YFP [Ubi-YFP 74]. In these cells, increased proteasome activity causes increased degradation of Ubi-YFP and decreased YFP fluorescence. Conversely, compounds that inhibit proteasome activity increase accumulation of Ubi-YFP and enhanced YFP fluorescence. As expected, MG132 augments YFP fluorescence intensity ˜3-fold compared to untreated controls (FIG. 7). […] Protein aggregates are present in the absence of MG132 and aggregation is suppressed following treatment with a provided compound.
HeLa cells (20,000/chamber) were plated on 8 chambered Tissue-tek coverglass pretreated with 1 mg/ml poly-D-lysine and allowed to adhere for 18 h at 37° C./5% CO2. Cells were transfected with 0.2 μg each CMV-CFP and Ubi-YFP plasmids using Lipofectamine 2000 according to manufacturer's instructions. Cells were allowed to express CFP and Ubi-YFP for 18 h followed by a 6 h incubation with test compounds (25 μM). MG132 (1 μM) was added for a final 18 h incubation and Ubi-YFP degradation assessed by fluorescence microscopy. Fluorescence intensity of CFP and YFP was calculated on a cell-by-cell basis from captured images using AxioVision software (Zeiss). YFP fluorescence was normalized to CFP fluorescence.

cortical neurons = assay: Cortical neuron assay; format: cell-based
Protocol: Selected compounds were tested with cortical neurons—a useful preliminary step prior to the expensive and time-consuming ALS mouse model studies. Although long linker compound 24 and cyclic linker compound 27 are active in the PC12 assay, they are not active with cortical neurons. Compound 3 gave better results than the ether counterpart (1), recovering 100% neuronal activity at 10 μM concentration.

[4] = test system: PC12 cells expressing G93A SOD1; assay: Sensitivity of PC12 cells to proteasome inhibitor, calcein-AM viability; format: cell-based; conditions: compared with MG132
Protocol: FIGS. 1A-C. […] Cell survival was determined using the viability stain calcein-AM.

[5] = In vitro microsomal stability, human; format: in vitro ADME; conditions: Human
Protocol: (§1) Metabolism (microsome, S9 fraction, CYP450): Liver Cytochrome P450 (CYP450) enzymes are the major route for xenobiotic metabolism and microsomal and hepatocyte stability is the best predictor of pharmacokinetic half-life. Cross-species comparisons of metabolism in liver microsomes can predict potential issues with liver toxicity in humans. Selected active compounds are tested in liver microsomes from efficacy species (mouse), toxicity species (rat, dog, monkey), and humans for metabolic stability.
(§2) CMB-087229 was sent for an evaluation of its in vitro ADME properties.
(§3) Two possible amines, secondary and tertiary AAP analogues, were initially screened in the protection assay (FIG. 30) and for in vitro microsomal stability (Table 1) and Caco-2 permeability (Table 2). […] The solubilities of 2 and 3 were good in aqueous media (≧150 μM), and no precipitation occurred at the highest concentration. The in vitro plasma half-life for both compounds was >60 min.

[6] = In vitro microsomal stability, mouse; format: in vitro ADME; conditions: Mouse; for microsomal CLint: mouse, liver microsomes, read-out: CLint (microsomal intrinsic clearance)
Protocol: as §1, §2, §3

Aqueous solubility = format: physicochemical; conditions: no precipitation at the highest concentration
Protocol: Solubility: Because compounds are stored in DMSO, it is necessary to determine aqueous solubility of initial hit compounds and their analogs. High solubility in aqueous solution is necessary for high GI absorption, bioavailability, and for chemical formulation. Compounds should be soluble in aqueous solution at >10 μg/ml. Solubility of >50 μg/ml is preferred.

[7] = In vitro plasma stability; format: in vitro ADME
Protocol: Plasma stability: Plasma stability of active compounds is assessed in efficacy species (mouse), toxicity species (rat, dog, monkey), and human cells.

Caco-2 = assay: In vitro Caco-2 permeability; format: in vitro ADME
Protocol: General Permeability: High membrane permeability is required for effective GI absorption and optimal bioavailability. Passive permeability is typically assessed in the PAMPA artificial membrane assay (Kansy et al., J. Med. Chem. 2002, 45(8), 1712-1722). Cell-based permeability determinations using the Caco-2 cell assay are more resource intensive but more predictive of active transport or efflux in vivo (Artursson et al., Adv. Drug. Deliv. Rev. 2001, 46(1-3), 27-43). Caco-2 assays are performed as needed during SAR development.

% Mean ± S.E. ([1]; 0 min, 15 μM): 100 ± 12.6% | RR Mean (Response Ratio) ([1]; 0 min, 15 μM): 0.237 | % Mean ± S.E. ([1]; 20 min, 15 μM): 109 ± 13.3% | RR Mean (Response Ratio) ([1]; 20 min, 15 μM): 0.261 | % Mean ± S.E. ([1]; 40 min, 15 μM): 84.8 ± 21.8% | RR Mean (Response Ratio) ([1]; 40 min, 15 μM): 0.201
Structure (SMILES): O=c1cc(CS(=O)(=O)c2ccc(Cl)cc2)[nH][nH]1 [TC-II-70]

Structure (SMILES): Cc1cc(SCc2cc(=O)[nH][nH]2)c(C)cc1Cl [CMB-003299]
EC50 [2]: 0.4 µM | effect on MG132-induced Ubi-YFP fluorescence [3]: strongly inhibit

Structure (SMILES): CN(CCCc1cc(=O)[nH][nH]1)c1cc(Cl)cc(Cl)c1 [Compound 24, 5-(3-((3,5-Dichlorophenyl)(methyl)amino)propyl)-1H-pyrazol-3(2H)-one]
activity in the cytotoxicity protection assay, in words [2]: active | activity with cortical neurons, in words (cortical neurons): not active

Structure (SMILES): CC(C)C[C@H](NC(=O)[C@H](Cc1ccccc1)NC(=O)c1cnccn1)B(O)O [bortezomib]
sensitivity to proteasome inhibition, in words [4]: Qualitatively similar results

% Mean ± S.E. ([1]; 0 min, 15 μM): 100 ± 7.75% | % Mean ± S.E. ([1]; 60 min, 15 μM): 96.1 ± 7.66%
Structure (SMILES): CC(=O)CC(c1ccccc1)c1c(O)c2ccccc2oc1=O (centres unmarked) [War, warfarin, reference compound]

T1/2 ([5]; NADPH-absent): >3 h | T1/2 ([5]; NADPH-dependent): >3 h | T1/2 ([6]; NADPH-absent): >3 h | T1/2 ([6]; NADPH-dependent): 0.417 h | microsomal CLint ([6]; NADPH-dependent): 93 µL/min/mg | solubility in aqueous media (Aqueous solubility): ≥ 150 µM | in vitro plasma half-life [7]: > 1 h | Efflux ratio (B→A)/(A→B) (Caco-2): 3.5 | Papp (A→B) (Caco-2): 2.2 10^−6 cm/s | Papp (B→A) (Caco-2): 7.6 10^−6 cm/s
Structure (SMILES): CN(Cc1cc(=O)[nH][nH]1)c1cc(Cl)cc(Cl)c1 [Compound 3, 5-(((3,5-Dichlorophenyl)(methyl)amino)methyl)-1H-pyrazol-3(2H)-one]
neuronal activity recovered (cortical neurons; 10 μM): 100%

Structure (SMILES): O=c1[nH][nH]c2c1CN(c1cc(Cl)cc(Cl)c1)CC2 [Compound 27, 5-(3,5-Dichlorophenyl)-4,5,6,7-tetrahydro-1H-pyrazolo[4,3-c]pyridin-3(2H)-one]
activity in the cytotoxicity protection assay, in words [2]: active | activity with cortical neurons, in words (cortical neurons): not active

% Mean ± S.E. ([1]; 0 min, 5 μM): 100 ± 11.5% | RR Mean (Response Ratio) ([1]; 0 min, 5 μM): 0.711 | % Mean ± S.E. ([1]; 0 min, 15 μM): 100 ± 7.11% | RR Mean (Response Ratio) ([1]; 0 min, 15 μM): 22.88 | % Mean ± S.E. ([1]; 20 min, 15 μM): 59.2 ± 14.9% | RR Mean (Response Ratio) ([1]; 20 min, 15 μM): 13.54 | % Mean ± S.E. ([1]; 40 min, 5 μM): 45.2 ± 8.1^ % | RR Mean (Response Ratio) ([1]; 40 min, 5 μM): 0.321
Structure (SMILES): Cc1cc(-c2ccccc2)nnc1NCCN1CCOCC1 [Mina, Minaprine, reference compound]

T1/2 ([5]; NADPH-absent): >3 h | T1/2 ([5]; NADPH-dependent): 1.58 h | microsomal CLint ([5]; liver microsomes, NADPH-dependent, read-out: CLint (microsomal intrinsic clearance)): 24 µL/min/mg | T1/2 ([6]; NADPH-absent): 1.67 h | T1/2 ([6]; NADPH-dependent): 0.5 h | microsomal CLint ([6]; NADPH-absent): 23 µL/min/mg | microsomal CLint ([6]; NADPH-dependent): 78 µL/min/mg | solubility in aqueous media (Aqueous solubility): ≥ 150 µM | in vitro plasma half-life [7]: > 1 h | Efflux ratio (B→A)/(A→B) (Caco-2): 47.1 | Papp (A→B) (Caco-2): 0.6 10^−6 cm/s | Papp (B→A) (Caco-2): 28.1 10^−6 cm/s
Structure (SMILES): O=c1cc(CNc2cc(Cl)cc(Cl)c2)[nH][nH]1 [Compound 2, 5-((3,5-Dichlorophenylamino)methyl)-1H-pyrazol-3(2H)-one, reference compound]

Structure (SMILES): O=c1cc(CSCc2ccc(Cl)cc2)[nH][nH]1 [TC-II-123]
EC50 [2]: 4.2 µM

Structure (SMILES): O=c1cc(CSc2ccc(Cl)cc2)[nH][nH]1 [CMB-086836-1]
EC50 [2]: 4.14 µM | Corresponding % viability ([2]; rat, 48 h): 75%

Structure (SMILES): CN(Cc1cc(=O)n(Cc2ccccc2)[nH]1)c1cc(Cl)cc(Cl)c1 [Compound 29, 2-Benzyl-5-(((3,5-dichlorophenyl)(methyl)amino)methyl)-1H-pyrazol-3(2H)-one]
activity in the cytotoxicity protection assay, in words [2]: comparable in activity to parent compound 3
